As usually defined, the MIC is the lowest concentration found to suppress growth.

Here are results for 13 molecules from ChEMBL document CHEMBL4602639, “A novel series of 11-O-carbamoyl-3-O-descladinosyl clarithromycin derivatives bearing 1,2,3-triazole group: Design, synthesis and antibacterial evaluation” (2020).

In brackets after ≈: the same amount, converted by molar mass.

Holding throughout (type): functional
In assay [1] the test system is Staphylococcus aureus. Nature of the assay: Antibacterial activity against erythromycin-susceptible Staphylococcus aureus ATCC 25923 by standard broth microdilution method. For orientation: Broth dilution looks for growth in wells or tubes with falling amounts of substance.
A further assay deals with Escherichia coli. In words: Antibacterial activity against penicillin-susceptible Escherichia coli ATCC 25922 by standard broth microdilution method.
The test system of a further assay is Bacillus subtilis. Nature of the assay: Antibacterial activity against penicillin-susceptible Bacillus subtilis ATCC 9372 by standard broth microdilution method.
The next assay has as its system Pseudomonas aeruginosa. Nature of the assay: Antibacterial activity against penicillin-susceptible Pseudomonas aeruginosa ATCC 27853 by standard broth microdilution method.
Assay [2] deals with Streptococcus pneumoniae. Nature of the assay: Antibacterial activity against erythromycin-resistant Streptococcus pneumoniae AB11 expressing ermB and me/A genes by standard broth microdilution method.
For assay [3], the system named is Streptococcus pneumoniae. In words: Antibacterial activity against erythromycin-resistant Streptococcus pneumoniae B1 expressing ermB gene by standard broth microdilution method.
The test system of another assay is Streptococcus pyogenes. In words: Antibacterial activity against erythromycin resistant Streptococcus pyogenes R1 by standard broth microdilution method.
The subject of assay [4] is Staphylococcus aureus. In words: Antibacterial activity against methicillin-resistant Staphylococcus aureus ATCC 43300 by standard broth microdilution method.

On to `CC[C@H]1OC(=O)[C@H](C)C(=O)[C@H](C)[C@@H](O[C@H]2O[C@@H](C)C[C@@H](N(C)C)[C@@H]2O)[C@](C)(OC)C[C@@H](C)C(=O)[C@H](C)[C@@H](OC(=O)NCCn2cc(-c3ccc(OC)cc3)nn2)[C@]1(C)O`, for which the MIC in the assay on Staphylococcus aureus [1] was 16 µg/mL (≈ 19.2 µM); against Escherichia coli it was over 128 µg/mL; in the assay on Bacillus subtilis, 4 µg/mL (≈ 4.81 µM); with Pseudomonas aeruginosa, 128 µg/mL (≈ 154 µM); in the assay with Streptococcus pneumoniae [2], 256 µg/mL (≈ 308 µM); against Streptococcus pneumoniae [3], over 256 µg/mL. Further, the MIC in the assay with Streptococcus pyogenes was 256 µg/mL (≈ 308 µM); in the assay on Staphylococcus aureus [4], over 256 µg/mL.
Consider `CC[C@H]1OC(=O)[C@H](C)C(=O)[C@H](C)[C@@H](O[C@H]2O[C@@H](C)C[C@@H](N(C)C)[C@@H]2O)[C@](C)(OC)C[C@@H](C)C(=O)[C@H](C)[C@@H](OC(=O)NCCn2cc(-c3ccc(F)cc3)nn2)[C@]1(C)O`, for which the MIC is 16 µg/mL (≈ 19.5 µM) with Staphylococcus aureus [1]; over 128 µg/mL against Escherichia coli; 4 µg/mL (≈ 4.88 µM) in the assay on Bacillus subtilis; 128 µg/mL (≈ 156 µM) with Pseudomonas aeruginosa; 128 µg/mL (≈ 156 µM) with Streptococcus pneumoniae [2]; 256 µg/mL (≈ 312 µM) in the assay on Streptococcus pneumoniae [3]. Also, the MIC with Streptococcus pyogenes was 64 µg/mL (≈ 78.1 µM); against Staphylococcus aureus [4], over 256 µg/mL.
As to `CC[C@H]1OC(=O)[C@H](C)C(=O)[C@H](C)[C@@H](O[C@H]2O[C@@H](C)C[C@@H](N(C)C)[C@@H]2O)[C@](C)(OC)C[C@@H](C)C(=O)[C@H](C)[C@@H](OC(=O)NCCCn2cc(-c3ccccc3)nn2)[C@]1(C)O`, the MIC is 8 µg/mL (≈ 9.8 µM) against Staphylococcus aureus [1]; over 128 µg/mL with Escherichia coli; 8 µg/mL (≈ 9.8 µM) in the assay on Bacillus subtilis; 128 µg/mL (≈ 157 µM) in the assay on Pseudomonas aeruginosa; 64 µg/mL (≈ 78.4 µM) against Streptococcus pneumoniae [2]; 128 µg/mL (≈ 157 µM) against Streptococcus pneumoniae [3]. The figures for the MIC with Streptococcus pyogenes and against Staphylococcus aureus [4] were 64 µg/mL (≈ 78.4 µM) and 256 µg/mL (≈ 314 µM), respectively.
With `CC[C@H]1OC(=O)[C@H](C)C(=O)[C@H](C)[C@@H](O[C@H]2O[C@@H](C)C[C@@H](N(C)C)[C@@H]2O)[C@](C)(OC)C[C@@H](C)C(=O)[C@H](C)[C@@H](OC(=O)NCCn2cc(-c3cccc(Br)c3)nn2)[C@]1(C)O`, the MIC with Staphylococcus aureus [1] is 16 µg/mL (≈ 18.2 µM); in the assay with Escherichia coli it was over 128 µg/mL; against Bacillus subtilis, 8 µg/mL (≈ 9.08 µM); with Pseudomonas aeruginosa, 128 µg/mL (≈ 145 µM); with Streptococcus pneumoniae [2] it was 128 µg/mL (≈ 145 µM); against Streptococcus pneumoniae [3], 256 µg/mL (≈ 291 µM). The MIC was 128 µg/mL (≈ 145 µM) against Streptococcus pyogenes and over 256 µg/mL against Staphylococcus aureus [4].
For the molecule `CC[C@H]1OC(=O)[C@H](C)C(=O)[C@H](C)[C@@H](O[C@H]2O[C@@H](C)C[C@@H](N(C)C)[C@@H]2O)[C@](C)(OC)C[C@@H](C)C(=O)[C@H](C)[C@@H](OC(=O)NCCn2cc(-c3ccc(Cl)cc3)nn2)[C@]1(C)O`, the MIC against Staphylococcus aureus [1] was 8 µg/mL (≈ 9.56 µM); against Escherichia coli, over 128 µg/mL; with Bacillus subtilis it was 4 µg/mL (≈ 4.78 µM); against Pseudomonas aeruginosa, 128 µg/mL (≈ 153 µM); in the assay on Streptococcus pneumoniae [2], 128 µg/mL (≈ 153 µM); in the assay with Streptococcus pneumoniae [3] it was 128 µg/mL (≈ 153 µM). For the same molecule, the results for the MIC against Streptococcus pyogenes and against Staphylococcus aureus [4] were 64 µg/mL (≈ 76.5 µM) and 256 µg/mL (≈ 306 µM), respectively.
Take `CC[C@H]1OC(=O)[C@H](C)C(=O)[C@H](C)[C@@H](O[C@H]2O[C@@H](C)C[C@@H](N(C)C)[C@@H]2O)[C@](C)(OC)C[C@@H](C)C(=O)[C@H](C)[C@@H](OC(=O)NCCn2cc(-c3ccc(C)cc3)nn2)[C@]1(C)O`: the MIC was 32 µg/mL (≈ 39.2 µM) against Staphylococcus aureus [1]; over 128 µg/mL with Escherichia coli; 8 µg/mL (≈ 9.8 µM) against Bacillus subtilis; 128 µg/mL (≈ 157 µM) against Pseudomonas aeruginosa; 256 µg/mL (≈ 314 µM) with Streptococcus pneumoniae [2]; over 256 µg/mL with Streptococcus pneumoniae [3]. For the same molecule, the MIC was 256 µg/mL (≈ 314 µM) in the assay on Streptococcus pyogenes and over 256 µg/mL against Staphylococcus aureus [4].
Regarding `CC[C@H]1OC(=O)[C@H](C)C(=O)[C@H](C)[C@@H](O[C@H]2O[C@@H](C)C[C@@H](N(C)C)[C@@H]2O)[C@](C)(OC)C[C@@H](C)C(=O)[C@H](C)[C@@H](OC(=O)NCCn2cc(-c3cccc(F)c3)nn2)[C@]1(C)O`, the MIC with Staphylococcus aureus [1] is 8 µg/mL (≈ 9.76 µM); against Escherichia coli, over 128 µg/mL; in the assay with Bacillus subtilis it was 4 µg/mL (≈ 4.88 µM); in the assay on Pseudomonas aeruginosa, 128 µg/mL (≈ 156 µM); against Streptococcus pneumoniae [2] it was 128 µg/mL (≈ 156 µM); in the assay with Streptococcus pneumoniae [3], 256 µg/mL (≈ 312 µM). In addition, the values for the MIC in the assay with Streptococcus pyogenes and with Staphylococcus aureus [4] were 128 µg/mL (≈ 156 µM) and 256 µg/mL (≈ 312 µM), respectively.
Turning to `CC[C@H]1OC(=O)[C@H](C)C(=O)[C@H](C)[C@@H](O[C@H]2O[C@@H](C)C[C@@H](N(C)C)[C@@H]2O)[C@](C)(OC)C[C@@H](C)C(=O)[C@H](C)[C@@H](OC(=O)NCCn2cc(-c3cccc(Cl)c3)nn2)[C@]1(C)O`, the MIC in the assay on Staphylococcus aureus [1] was 8 µg/mL (≈ 9.56 µM); against Escherichia coli, over 128 µg/mL; in the assay on Bacillus subtilis, 4 µg/mL (≈ 4.78 µM); against Pseudomonas aeruginosa it was 128 µg/mL (≈ 153 µM); with Streptococcus pneumoniae [2], 128 µg/mL (≈ 153 µM); against Streptococcus pneumoniae [3] it was 128 µg/mL (≈ 153 µM). Besides, the MIC with Streptococcus pyogenes worked out at 64 µg/mL (≈ 76.5 µM); against Staphylococcus aureus [4], 256 µg/mL (≈ 306 µM).
For the molecule `CC[C@H]1OC(=O)[C@H](C)C(=O)[C@H](C)[C@@H](O[C@H]2O[C@@H](C)C[C@@H](N(C)C)[C@@H]2O)[C@](C)(OC)C[C@@H](C)C(=O)[C@H](C)[C@@H](OC(=O)NCCn2cc(-c3cccc(C)c3)nn2)[C@]1(C)O`, the MIC against Staphylococcus aureus [1] is 32 µg/mL (≈ 39.2 µM); against Escherichia coli, over 128 µg/mL; against Bacillus subtilis, 8 µg/mL (≈ 9.8 µM); against Pseudomonas aeruginosa it was 128 µg/mL (≈ 157 µM); in the assay with Streptococcus pneumoniae [2], 256 µg/mL (≈ 314 µM); in the assay on Streptococcus pneumoniae [3], over 256 µg/mL. For the same molecule, the figures for the MIC in the assay on Streptococcus pyogenes and in the assay on Staphylococcus aureus [4] were 256 µg/mL (≈ 314 µM) and over 256 µg/mL, respectively.
Consider `CC[C@H]1OC(=O)[C@H](C)C(=O)[C@H](C)[C@@H](O[C@H]2O[C@@H](C)C[C@@H](N(C)C)[C@@H]2O)[C@](C)(OC)C[C@@H](C)C(=O)[C@H](C)[C@@H](OC(=O)NCCn2cc(-c3cccc(N)c3)nn2)[C@]1(C)O`, for which the MIC against Staphylococcus aureus [1] was 32 µg/mL (≈ 39.2 µM); with Escherichia coli it was over 128 µg/mL; against Bacillus subtilis, 32 µg/mL (≈ 39.2 µM); against Pseudomonas aeruginosa, 128 µg/mL (≈ 157 µM); with Streptococcus pneumoniae [2], 256 µg/mL (≈ 313 µM); against Streptococcus pneumoniae [3], over 256 µg/mL. For the same molecule, the MIC against Streptococcus pyogenes was 256 µg/mL (≈ 313 µM); with Staphylococcus aureus [4], over 256 µg/mL.
Take `CC[C@H]1OC(=O)[C@H](C)C(=O)[C@H](C)[C@@H](O[C@H]2O[C@@H](C)C[C@@H](N(C)C)[C@@H]2O)[C@](C)(OC)C[C@@H](C)C(=O)[C@H](C)[C@@H](OC(=O)NCCn2cc(-c3ccc([N+](=O)[O-])cc3)nn2)[C@]1(C)O`: the MIC in the assay with Staphylococcus aureus [1] is 16 µg/mL (≈ 18.9 µM); in the assay on Escherichia coli, over 128 µg/mL; against Bacillus subtilis, 4 µg/mL (≈ 4.72 µM); against Pseudomonas aeruginosa it was 128 µg/mL (≈ 151 µM); in the assay on Streptococcus pneumoniae [2], 256 µg/mL (≈ 302 µM); in the assay with Streptococcus pneumoniae [3], 256 µg/mL (≈ 302 µM). Moreover, the MIC in the assay with Streptococcus pyogenes was 64 µg/mL (≈ 75.6 µM); with Staphylococcus aureus [4], over 256 µg/mL.
Take `CCc1ccc(-c2cn(CCNC(=O)O[C@@H]3[C@@H](C)C(=O)[C@H](C)C[C@@](C)(OC)[C@H](O[C@H]4O[C@@H](C)C[C@@H](N(C)C)[C@@H]4O)[C@@H](C)C(=O)[C@@H](C)C(=O)O[C@H](CC)[C@@]3(C)O)nn2)cc1`: the MIC is 32 µg/mL (≈ 38.6 µM) in the assay on Staphylococcus aureus [1]; over 128 µg/mL in the assay on Escherichia coli; 4 µg/mL (≈ 4.82 µM) with Bacillus subtilis; 128 µg/mL (≈ 154 µM) in the assay on Pseudomonas aeruginosa; 256 µg/mL (≈ 308 µM) against Streptococcus pneumoniae [2]; over 256 µg/mL in the assay with Streptococcus pneumoniae [3]. The results for the MIC against Streptococcus pyogenes and against Staphylococcus aureus [4] were 128 µg/mL (≈ 154 µM) and over 256 µg/mL, respectively.
Take `CCCc1ccc(-c2cn(CCNC(=O)O[C@@H]3[C@@H](C)C(=O)[C@H](C)C[C@@](C)(OC)[C@H](O[C@H]4O[C@@H](C)C[C@@H](N(C)C)[C@@H]4O)[C@@H](C)C(=O)[C@@H](C)C(=O)O[C@H](CC)[C@@]3(C)O)nn2)cc1`: the MIC is 32 µg/mL (≈ 37.9 µM) against Staphylococcus aureus [1]; over 128 µg/mL against Escherichia coli; 8 µg/mL (≈ 9.48 µM) in the assay with Bacillus subtilis; 128 µg/mL (≈ 152 µM) against Pseudomonas aeruginosa; 128 µg/mL (≈ 152 µM) in the assay on Streptococcus pneumoniae [2]; 256 µg/mL (≈ 303 µM) with Streptococcus pneumoniae [3]. The values for the MIC in the assay with Streptococcus pyogenes and against Staphylococcus aureus [4] were 64 µg/mL (≈ 75.8 µM) and 256 µg/mL (≈ 303 µM), respectively.
